The source made the active and inactive calls. The rule behind the calls is not given here.

This assay in a line: Inactivation of DXR.

As to `C[C@@](CO)(CF)[C@H](O)COP(=O)(O)O`, the outcome was Active.

For the origin of these results see ChEMBL document CHEMBL1142392, “Synthesis and analysis of a fluorinated product analogue as an inhibitor for 1-deoxy-D-xylulose 5-phosphate reductoisomerase” (Bioorg Med Chem Lett, 2008).
